Results reported in patent US12018048B2, “Anthelmintic depsipeptide compounds” (BOEHRINGER INGELHEIM ANIMAL HEALTH USA INC., priority 2015, dated 2024).
Values after ≈ are worked out from the molar mass of the structure shown. Read-outs that look alike come from different tables or passages of the source.

Legend:
[1] = amide bond, 24-membered ring
[2] = test system: microfilaria of Dirofilaria immitis; experiment: Screening method to test activity against microfilaria of Dirofilaria immitis (survival, microtitre plate); type: cell-based; details: 72 h, read-out: median EC50 value
[3] = test system: Haemonchus contortus L1 larvae; experiment: Screening method to test activity against Haemonchus contortus (L1 larval development, microtitre plate); details: 96 h; for MIC90: read-out: median MIC90 value; for EC50: read-out: median EC50 value
Experimental: METHOD A: Screening method to test activity of compounds against Haemonchus contortus.
Twenty L1 Haemonchus contortus larvae were added to wells of a microtitre plate containing a nutrient medium and the test compound in DMSO. An analysis was conducted at 4 days to determine the extent of development of the larvae. Larvae exposed to DMSO alone served as controls.
The EC50 and MIC90 recordings were obtained using different instruments.

CC(C)C[C@H]1C(=O)O[C@H](C)C(=O)N(C)[C@@H](CC(C)(C)F)C(=O)O[C@H](Cc2ccc(C3CCOCC3)cc2)C(=O)N(C)C2(CC2)C(=O)O[C@H](C)C(=O)N(C)[C@@H](CC(C)(C)F)C(=O)O[C@H](Cc2ccc(C3CCOCC3)cc2)C(=O)N1C
ring closure, yield after HPLC ([1]; from H-MeAcc(1-aminocyclopropanecarboxylic)-dLac-MeLeu(4-F)-dPhLac(4-oxan-4-yl)-MeLeu-dLac-MeLeu(4-F)-dPhLac(4-oxan-4-yl)-OH, BOP-Cl/DIEA, DCM, 0.87 mM): 39%

CN1C(=O)COC(=O)[C@H](CC2CC2)N(C)C(=O)[C@@H](Cc2ccc(C3CCOCC3)cc2)OC(=O)[C@H](CC(C)(C)F)N(C)C(=O)COC(=O)[C@H](CC2CC2)N(C)C(=O)[C@@H](Cc2ccc(C3CCOCC3)cc2)OC(=O)[C@@H]1CC(C)(C)F
ring closure, yield after HPLC ([1]; from H-MeLeu(4-F)-dPhLac(4-oxan-4-yl)-MeAla(3-cyclopropyl)-Glycolic-MeLeu(4-F)-dPhLac(4-oxan-4-yl)-MeAla(3-cyclopropyl)-Glycolic-OH, BOP-Cl/DIEA, DCM, 2.57 mM): 33%

C[C@H]1OC(=O)[C@H](CC2CC2)N(C)C(=O)[C@@H](Cc2ccc(N3CCOCC3)cc2)OC(=O)[C@H](CC2CC2)N(C)C(=O)[C@@H](C)OC(=O)[C@H](CC2CC2)N(C)C(=O)[C@@H](Cc2ccc(N3CCOCC3)cc2)OC(=O)[C@H](CC2CC2)N(C)C1=O [Compound 6-1A, (3S,6R,9S,12R,15S,18R,21S,24R)-3,9,15,21-tetrakis(cyclopropylmethyl)-4,10,12,16,22,24-hexamethyl-6,18-bis([[4-(morpholin-4-yl)phenyl]methyl])-1,7,13,19-tetraoxa-4,10,16,22-tetraazacyclotetracosan-2,5,8,11,14,17,20,23-octone]
ring closure, yield after HPLC ([1]; from H-MeAla(cyclopropyl)-dPhLac(4-morpholino)-MeAla(cyclopropyl)-dLac-MeAla(cyclopropyl)-dPhLac(4-morpholino)-MeAla(cyclopropyl)-dLac-OH, BOP-Cl/DIEA, DCM, 1.5 mM): 13% | EC50 [2]: 0.1 to 1 µM | MIC90 [3]: 1 to 10 µM (≈ 1.11 to 11.1 µg/mL)

CC(C)C[C@H]1C(=O)O[C@H](C)C(=O)N(C)[C@@H](CC2CC2)C(=O)O[C@H](Cc2ccc(N3CCOCC3)cc2)C(=O)N(C)[C@@H](CC(C)C)C(=O)O[C@H](C)C(=O)N(C)[C@@H](CC2CC2)C(=O)O[C@H](Cc2ccc(N3CCOCC3)cc2)C(=O)N1C [Compound 6-7A, (3S,6R,9S,12R,15S,18R,21S,24R)-3,15-bis(cyclopropylmethyl)-4,6,10,16,18,22-hexamethyl-9,21-bis(2-methylpropyl)-12,24-bis([[4-(morpholin-4-yl)phenyl]methyl])-1,7,13,19-tetraoxa-4,10,16,22-tetraazacyclotetracosan-2,5,8,11,14,17,20,23-octone]
ring closure, yield after HPLC ([1]; from H-MeAla(cyclopropyl)-dPhLac(4-morpholino)-MeLeu-dLac-MeAla(cyclopropyl)-dPhLac(4-morpholino)-MeLeu-dLac-OH, BOP-Cl/DIEA, DCM, 3.2 mM): 8% | EC50 [2]: 0.1 to 1 µM | MIC90 [3]: 0.1 to 1 µM (≈ 0.112 to 1.12 µg/mL)

C[C@H]1OC(=O)[C@H](CC2CC2)N(C)C(=O)[C@@H](Cc2ccc(C3CCOCC3)cc2)OC(=O)[C@H](CC(C)(C)F)N(C)C(=O)[C@@H](C)OC(=O)[C@H](CC2CC2)N(C)C(=O)[C@@H](Cc2ccc(C3CCOCC3)cc2)OC(=O)[C@H](CC(C)(C)F)N(C)C1=O [Compound 7-34A, (3S,6R,9S,12R,15S,18R,21S,24R)-3,15-bis(cyclopropylmethyl)-9,21-bis(2-fluoro-2-methylpropyl)-4,-10,12,16,22,24-hexamethyl-6,18-bis([[4-(oxan-4-yl)phenyl]methyl])-1,7,13,19-tetraoxa-4,10,16,22-te-traazacyclotetracosan-2,5,8,11,14,17,20,23-octone]
ring closure, yield after HPLC ([1]; from H-MeLeu(4-F)-dPhLac(4-oxan-4-yl)-MeAla(3-cyclopropyl)-dLac-MeLeu(4-F)-dPhLac(4-oxan-4-yl)-MeAla(3-cyclopropyl)-dLac-OH, BOP-Cl/DIEA, DCM, 2.75 mM): 14% | EC50 [2]: < 0.1 µM | EC50 [3]: < 0.1 µM | MIC90 [3]: < 0.1 µM

CC(C)C[C@H]1C(=O)O[C@H](C)C(=O)N(C)[C@@H](CC2CC2)C(=O)O[C@H](Cc2ccc(N3CCOCC3)nc2)C(=O)N(C)[C@@H](CC(C)C)C(=O)O[C@H](C)C(=O)N(C)[C@@H](CC2CC2)C(=O)O[C@H](Cc2ccc(N3CCOCC3)nc2)C(=O)N1C [Compound 9-7A, (3S,6R,9S,12R,15S,18R,21S,24R)-3,15-bis(cyclopropylmethyl)-4,6,10,16,18,22-hexamethyl-9,21-bis(2-methylpropyl)-12,24-bis([[6-(morpholin-4-yl)pyridin-3-yl]methyl])-1,7,13,19-tetraoxa-4,10,16,22-tetraazacyclotetracosan-2,5,8,11,14,17,20,23-octone]
ring closure, yield after HPLC ([1]; from H-MeAla(cyclopropyl)-dLac(3-[6-(morpholin-4-yl)pyridin-3-yl])-MeLeu-dLac-MeAla(cyclopropyl)-dLac(3-[6-(morpholin-4-yl)pyridin-3-yl])-MeLeu-dLac-OH?, BOP-Cl/DIEA, DCM, 4.2 mM): 12% | EC50 [2]: 1 to 10 µM

C[C@H]1OC(=O)C2(CC2)N(C)C(=O)[C@@H](Cc2ccc(C3CCOCC3)cc2)OC(=O)[C@H](CC(C)(C)F)N(C)C(=O)[C@@H](C)OC(=O)C2(CC2)N(C)C(=O)[C@@H](Cc2ccc(C3CCOCC3)cc2)OC(=O)[C@H](CC(C)(C)F)N(C)C1=O [Compound 969-34A, (6R,9S,12R,20R,23S,26R)-9,23-bis(2-fluoro-2-methylpropyl)-4,10,12,18,24,26-hexamethyl-6,20-bis([[4-(oxan-4-yl)phenyl]methyl])-7,13,21,27-tetraoxa-4,10,18,24-tetraazadispiro[2.11.2^[15].11^[3]]octacosan-5,8,11,14,19,22,25,28-octone]
ring closure, yield after HPLC ([1]; from H-MeAcc(1-aminocyclopropanecarboxylic)-dLac-MeLeu(4-F)-dPhLac(4-oxan-4-yl)-MeAcc(1-aminocyclopropanecarboxylic)-dLac-MeLeu(4-F)-dPhLac(4-oxan-4-yl)-OH, BOP-Cl/DIEA, DCM, 3.2 mM): 29% | EC50 [2]: 1 to 10 µM | EC50 [3]: 1 to 10 µM

(3S,6R,9S,12R,15S,18R,21S,24R)-3,15-bis(cyclopropylmethyl)-9,21-bis(2-fluoro-2-methylpropyl)-4,10,12,16,22,24-hexamethyl-6,18-bis([[4-(morpholin-4-yl)phenyl]methyl])-1,7,13,19-tetraoxa-4,10,16,22-tetraazacyclotetracosan-2,5,8,11,14,17,20,23-octone
ring closure, yield after HPLC ([1]; DIEA): 24%
